≈ marks a conversion by molar mass, not a printed value.
molecular target: T1, S. aureus UDP-N-acetylglucosamine enolpyruvoyl transferase, MurA (Staphylococcus aureus, UniProt P84058); experiment: Inhibitory activity against MurA (S. aureus); type: biochemical; conditions: (S) S. aureus enzyme
T1 sequence (P84058 1-421): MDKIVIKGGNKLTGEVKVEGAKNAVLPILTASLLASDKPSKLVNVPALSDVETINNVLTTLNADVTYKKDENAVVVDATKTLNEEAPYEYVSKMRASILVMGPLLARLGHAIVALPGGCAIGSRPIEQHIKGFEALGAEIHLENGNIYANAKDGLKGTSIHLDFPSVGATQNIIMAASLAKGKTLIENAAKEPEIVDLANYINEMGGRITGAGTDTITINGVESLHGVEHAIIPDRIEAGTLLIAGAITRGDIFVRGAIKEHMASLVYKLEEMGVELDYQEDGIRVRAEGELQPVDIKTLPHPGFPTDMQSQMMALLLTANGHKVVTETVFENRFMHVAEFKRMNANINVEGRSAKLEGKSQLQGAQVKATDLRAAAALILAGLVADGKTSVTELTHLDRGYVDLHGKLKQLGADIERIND
Method: Evaluation of the Inhibitory Activity of Test Compounds Against Enzymes which Catalyze Bacterial Cell Wall Biosynthesis
S. aureus and E. coli UDP-N-acetylglucosamine enolpyruvoyl transferase, MurA
Preparation of Enzyme Solution:
The enzyme solution is prepared by admixing the following: 50 mM Tris/HCl pH 8.0, […] 1 M Tris, 5 mM DTT, […] 1 M DTT, 20% Glycerol 4 ml 50% Glycerol, add water to 10 ml.
Preparation of Stop Solution:
The stop solution is prepared by mixing the following: 4.2% ammonium molybdate in 4N HCl, 8.4 g/200 ml 4N HCl, 0.045% malachite green, 90 mg/200 ml water, then stir 1 part ammonium molybdate with 2 parts malachite green for 30 min.
A procedure similar to that described by C. T. Walsh in Biochemistry 33, 10646-10651, is used to evaluate the inhibitory activity of test compounds against MurA, the enzyme which catalyzes the first step of bacterial cell wall biosynthesis. Experiments are performed by adding a solution of test compound (in a mixture of dimethylsulfoxide and water) and an enzyme solution to a well. After a pre-incubation period of 10 mintues at 37° C., Tris/BME buffer and assay buffer are added. A start point optical density (OD0) reading is taken at 340 nm immediately following the addition of assay buffer. After incubation for 1 hr at 37° C., the stop solution is added and the color is allowed to develop for 30 minutes. An end point OD1 reading at […] is then taken. […]

| Structure (SMILES) | IC50 | MurA IC50 |
| --- | --- | --- |
| COc1cc(/C=C2\OC(=O)C(c3cccc(Cl)c3)=C2O)ccc1-c1ccccc1C(F)(F)F [Example 32] | 21.1 µM |  |
| COc1cc(/C=C2\OC(=O)C(c3cc(Cl)cc(Cl)c3)=C2O)ccc1-c1ccccc1C(F)(F)F [Example 33] | 7.89 µM |  |
| O=C1O/C(=C\c2ccc(N3CCOCC3)c(F)c2)C(O)=C1c1cc(Cl)cc(Cl)c1 [Example 34] |  | 22 (S) μg/mL |
| COc1ccc(C=C2OC(=O)C(c3cccc(Cl)c3)=C2O)c2ccccc12 [Example 35] |  | >25 (S) μg/mL |
| COc1ccc(/C=C2\OC(=O)C(c3cc(Cl)cc(Cl)c3)=C2O)c2ccccc12 [Example 36] | 14.5 µM |  |
| O=C1O/C(=C\c2ccc(N3CCOCC3)c3ccccc23)C(O)=C1c1cccc(Cl)c1 [Example 37] | > 57.6 µM |  |
| O=C1O/C(=C\c2ccc(N3CCOCC3)c3ccccc23)C(O)=C1c1cc(Cl)cc(Cl)c1 [Example 38] | > 53.4 µM |  |
| Cc1cc(/C=C2\OC(=O)C(c3cc(Cl)cc(Cl)c3)=C2O)ccc1-c1ccccc1OS(C)(=O)=O [Example 39] |  | 15 (S) μg/mL |
| O=C1O/C(=C\c2cccc3ccccc23)C(O)=C1c1cc(Cl)cc(Cl)c1 [Example 70] | 39.1 µM |  |

molecular target: T2, S. aureus Uridine-diphosphate-N-acetylmuramoyl-L-alanine: D-glutamate liease, MurD (Staphylococcus aureus, UniProt Q2FZ92); experiment: biochemical; conditions: (S) S. aureus enzyme
T2 sequence (Q2FZ92 1-449): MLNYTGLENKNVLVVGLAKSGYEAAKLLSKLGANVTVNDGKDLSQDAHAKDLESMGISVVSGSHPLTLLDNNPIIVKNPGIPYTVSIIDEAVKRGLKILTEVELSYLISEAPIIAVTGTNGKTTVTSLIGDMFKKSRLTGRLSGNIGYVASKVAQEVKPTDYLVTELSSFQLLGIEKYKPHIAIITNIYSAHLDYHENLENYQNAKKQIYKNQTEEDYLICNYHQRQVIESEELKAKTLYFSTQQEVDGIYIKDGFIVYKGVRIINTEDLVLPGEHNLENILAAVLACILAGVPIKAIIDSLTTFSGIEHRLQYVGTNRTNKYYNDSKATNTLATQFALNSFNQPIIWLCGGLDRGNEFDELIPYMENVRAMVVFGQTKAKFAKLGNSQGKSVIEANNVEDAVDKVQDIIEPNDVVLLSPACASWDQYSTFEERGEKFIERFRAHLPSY
Summary of the method: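 MurD, which catalyses the fourth step of cell wall biosynthesis, was tested for inhibition by compounds. Compounds were made up as 10 mg/mL DMSO stocks and diluted to 100 μg/mL in 50 mM Tris/HCl, pH 8.5.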

| Structure (SMILES) | IC50 | MurD IC50 |
| --- | --- | --- |
| COc1cc(/C=C2\OC(=O)C(c3cccc(Cl)c3)=C2O)ccc1-c1ccccc1C(F)(F)F [Example 32] | 19 µM |  |
| COc1cc(/C=C2\OC(=O)C(c3cc(Cl)cc(Cl)c3)=C2O)ccc1-c1ccccc1C(F)(F)F [Example 33] | > 49.3 µM |  |
| O=C1O/C(=C\c2ccc(N3CCOCC3)c(F)c2)C(O)=C1c1cc(Cl)cc(Cl)c1 [Example 34] |  | >25 (S) μg/mL |
| COc1ccc(C=C2OC(=O)C(c3cccc(Cl)c3)=C2O)c2ccccc12 [Example 35] |  | 17 (S) μg/mL |
| COc1ccc(/C=C2\OC(=O)C(c3cc(Cl)cc(Cl)c3)=C2O)c2ccccc12 [Example 36] | 21.8 µM |  |
| O=C1O/C(=C\c2ccc(N3CCOCC3)c3ccccc23)C(O)=C1c1cccc(Cl)c1 [Example 37] | 43.8 µM |  |
| O=C1O/C(=C\c2ccc(N3CCOCC3)c3ccccc23)C(O)=C1c1cc(Cl)cc(Cl)c1 [Example 38] | 12.8 µM |  |
| Cc1cc(/C=C2\OC(=O)C(c3cc(Cl)cc(Cl)c3)=C2O)ccc1-c1ccccc1OS(C)(=O)=O [Example 39] |  | 15 (S) μg/mL |
| O=C1O/C(=C\c2cccc3ccccc23)C(O)=C1c1cc(Cl)cc(Cl)c1 [Example 70] | 23.5 µM |  |

system: enterococci; experiment: Minimum inhibitory concentration, microdilution broth method, enterococci; type: cell-based; conditions: E. faecalis GC 2242; Mueller-Hinton broth, 18-22 hours at 35° C.
Summary of the method: (§1)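 Following NCCLS standard M7-A5, MICs were determined by microdilution in Mueller-Hinton broth, with 5% horse blood added for streptococci.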

| Structure (SMILES) | MIC E. faecalis GC 2242 |
| --- | --- |
| O=C1O/C(=C\c2ccc(N3CCOCC3)c(F)c2)C(O)=C1c1cc(Cl)cc(Cl)c1 [Example 34] | 64 µg/mL (≈ 147 µM) |
| COc1ccc(C=C2OC(=O)C(c3cccc(Cl)c3)=C2O)c2ccccc12 [Example 35] | 8 µg/mL (≈ 21.1 µM) |
| Cc1cc(/C=C2\OC(=O)C(c3cc(Cl)cc(Cl)c3)=C2O)ccc1-c1ccccc1OS(C)(=O)=O [Example 39] | 4 µg/mL (≈ 7.73 µM) |

same assay, conditions: E. faecalis GC 4555; Mueller-Hinton broth, 18-22 hours at 35° C.

| Structure (SMILES) | MIC E. faecalis GC 4555 |
| --- | --- |
| O=C1O/C(=C\c2ccc(N3CCOCC3)c(F)c2)C(O)=C1c1cc(Cl)cc(Cl)c1 [Example 34] | 64 µg/mL (≈ 147 µM) |
| COc1ccc(C=C2OC(=O)C(c3cccc(Cl)c3)=C2O)c2ccccc12 [Example 35] | 16 µg/mL (≈ 42.2 µM) |
| Cc1cc(/C=C2\OC(=O)C(c3cc(Cl)cc(Cl)c3)=C2O)ccc1-c1ccccc1OS(C)(=O)=O [Example 39] | 8 µg/mL (≈ 15.5 µM) |

same assay, conditions: Enterococcus faecalis, E. faecalis GC 2242; Mueller-Hinton broth, 18-22 hours at 35° C.; read-out: MIC E. faecalis GC 2242

| Structure (SMILES) | MIC |
| --- | --- |
| COc1cc(/C=C2\OC(=O)C(c3cccc(Cl)c3)=C2O)ccc1-c1ccccc1C(F)(F)F [Example 32] | 4 µg/mL (≈ 8.46 µM) |
| COc1cc(/C=C2\OC(=O)C(c3cc(Cl)cc(Cl)c3)=C2O)ccc1-c1ccccc1C(F)(F)F [Example 33] | 1 µg/mL (≈ 1.97 µM) |
| COc1ccc(/C=C2\OC(=O)C(c3cc(Cl)cc(Cl)c3)=C2O)c2ccccc12 [Example 36] | 4 µg/mL (≈ 9.68 µM) |
| O=C1O/C(=C\c2ccc(N3CCOCC3)c3ccccc23)C(O)=C1c1cccc(Cl)c1 [Example 37] | 16 µg/mL (≈ 36.9 µM) |
| O=C1O/C(=C\c2ccc(N3CCOCC3)c3ccccc23)C(O)=C1c1cc(Cl)cc(Cl)c1 [Example 38] | 16 µg/mL (≈ 34.2 µM) |
| O=C1O/C(=C\c2cccc3ccccc23)C(O)=C1c1cc(Cl)cc(Cl)c1 [Example 70] | 2 µg/mL (≈ 5.22 µM) |

same assay, conditions: Enterococcus faecalis, E. faecalis GC 4555; Mueller-Hinton broth, 18-22 hours at 35° C.; read-out: MIC E. faecalis GC 4555

| Structure (SMILES) | MIC |
| --- | --- |
| COc1cc(/C=C2\OC(=O)C(c3cccc(Cl)c3)=C2O)ccc1-c1ccccc1C(F)(F)F [Example 32] | 8 µg/mL (≈ 16.9 µM) |
| COc1cc(/C=C2\OC(=O)C(c3cc(Cl)cc(Cl)c3)=C2O)ccc1-c1ccccc1C(F)(F)F [Example 33] | 2 µg/mL (≈ 3.94 µM) |
| COc1ccc(/C=C2\OC(=O)C(c3cc(Cl)cc(Cl)c3)=C2O)c2ccccc12 [Example 36] | 8 µg/mL (≈ 19.4 µM) |
| O=C1O/C(=C\c2ccc(N3CCOCC3)c3ccccc23)C(O)=C1c1cccc(Cl)c1 [Example 37] | 32 µg/mL (≈ 73.8 µM) |
| O=C1O/C(=C\c2ccc(N3CCOCC3)c3ccccc23)C(O)=C1c1cc(Cl)cc(Cl)c1 [Example 38] | 32 µg/mL (≈ 68.3 µM) |
| O=C1O/C(=C\c2cccc3ccccc23)C(O)=C1c1cc(Cl)cc(Cl)c1 [Example 70] | 2 µg/mL (≈ 5.22 µM) |

system: staphylococci; experiment: Minimum inhibitory concentration, microdilution broth method, staphylococci; type: cell-based; conditions: S. aureus GC 1131; Mueller-Hinton broth, 18-22 hours at 35° C.
Summary of the method: as §1

| Structure (SMILES) | MIC S. aureus GC 1131 |
| --- | --- |
| O=C1O/C(=C\c2ccc(N3CCOCC3)c(F)c2)C(O)=C1c1cc(Cl)cc(Cl)c1 [Example 34] | 32 µg/mL (≈ 73.3 µM) |
| COc1ccc(C=C2OC(=O)C(c3cccc(Cl)c3)=C2O)c2ccccc12 [Example 35] | 8 µg/mL (≈ 21.1 µM) |
| Cc1cc(/C=C2\OC(=O)C(c3cc(Cl)cc(Cl)c3)=C2O)ccc1-c1ccccc1OS(C)(=O)=O [Example 39] | 2 µg/mL (≈ 3.87 µM) |

same assay, conditions: S. aureus GC 4543; Mueller-Hinton broth, 18-22 hours at 35° C.

| Structure (SMILES) | MIC S. aureus GC 4543 |
| --- | --- |
| O=C1O/C(=C\c2ccc(N3CCOCC3)c(F)c2)C(O)=C1c1cc(Cl)cc(Cl)c1 [Example 34] | 32 µg/mL (≈ 73.3 µM) |
| COc1ccc(C=C2OC(=O)C(c3cccc(Cl)c3)=C2O)c2ccccc12 [Example 35] | 8 µg/mL (≈ 21.1 µM) |
| Cc1cc(/C=C2\OC(=O)C(c3cc(Cl)cc(Cl)c3)=C2O)ccc1-c1ccccc1OS(C)(=O)=O [Example 39] | 4 µg/mL (≈ 7.73 µM) |

same assay, conditions: Staphylococcus aureus, S. aureus GC 1131; Mueller-Hinton broth, 18-22 hours at 35° C.; read-out: MIC S. aureus GC 1131

| Structure (SMILES) | MIC |
| --- | --- |
| COc1cc(/C=C2\OC(=O)C(c3cccc(Cl)c3)=C2O)ccc1-c1ccccc1C(F)(F)F [Example 32] | 2 µg/mL (≈ 4.23 µM) |
| COc1cc(/C=C2\OC(=O)C(c3cc(Cl)cc(Cl)c3)=C2O)ccc1-c1ccccc1C(F)(F)F [Example 33] | 0.5 µg/mL (≈ 0.986 µM) |
| COc1ccc(/C=C2\OC(=O)C(c3cc(Cl)cc(Cl)c3)=C2O)c2ccccc12 [Example 36] | 4 µg/mL (≈ 9.68 µM) |
| O=C1O/C(=C\c2ccc(N3CCOCC3)c3ccccc23)C(O)=C1c1cccc(Cl)c1 [Example 37] | 16 µg/mL (≈ 36.9 µM) |
| O=C1O/C(=C\c2ccc(N3CCOCC3)c3ccccc23)C(O)=C1c1cc(Cl)cc(Cl)c1 [Example 38] | 8 µg/mL (≈ 17.1 µM) |
| O=C1O/C(=C\c2cccc3ccccc23)C(O)=C1c1cc(Cl)cc(Cl)c1 [Example 70] | 2 µg/mL (≈ 5.22 µM) |

same assay, conditions: Staphylococcus aureus, S. aureus GC 4543; Mueller-Hinton broth, 18-22 hours at 35° C.; read-out: MIC S. aureus GC 4543

| Structure (SMILES) | MIC |
| --- | --- |
| COc1cc(/C=C2\OC(=O)C(c3cccc(Cl)c3)=C2O)ccc1-c1ccccc1C(F)(F)F [Example 32] | 2 µg/mL (≈ 4.23 µM) |
| COc1cc(/C=C2\OC(=O)C(c3cc(Cl)cc(Cl)c3)=C2O)ccc1-c1ccccc1C(F)(F)F [Example 33] | 0.5 µg/mL (≈ 0.986 µM) |
| COc1ccc(/C=C2\OC(=O)C(c3cc(Cl)cc(Cl)c3)=C2O)c2ccccc12 [Example 36] | 4 µg/mL (≈ 9.68 µM) |
| O=C1O/C(=C\c2ccc(N3CCOCC3)c3ccccc23)C(O)=C1c1cccc(Cl)c1 [Example 37] | 16 µg/mL (≈ 36.9 µM) |
| O=C1O/C(=C\c2ccc(N3CCOCC3)c3ccccc23)C(O)=C1c1cc(Cl)cc(Cl)c1 [Example 38] | 8 µg/mL (≈ 17.1 µM) |
| O=C1O/C(=C\c2cccc3ccccc23)C(O)=C1c1cc(Cl)cc(Cl)c1 [Example 70] | 1 µg/mL (≈ 2.61 µM) |
